≈ marks a conversion by molar mass, not a printed value.
Experiments:
[1] = tested on: Pseudomonas aeruginosa; assay: Antimicrobial activity against Pseudomonas aeruginosa 1592E isolate after 18 hrs; format: functional
[2] = tested on: Escherichia coli; assay: Antimicrobial activity against Escherichia coli DC2 isolate after 18 hrs; format: functional
[3] = tested on: Escherichia coli; assay: Antimicrobial activity against Escherichia coli 1507E isolate after 18 hrs; format: functional
[4] = tested on: Pseudomonas aeruginosa; assay: Antimicrobial activity against Pseudomonas aeruginosa 9027 isolate after 18 hrs; format: functional
[5] = tested on: Staphylococcus aureus; assay: Antimicrobial activity against Staphylococcus aureus SG511 isolate after 18 hrs; format: functional
[6] = tested on: Pseudomonas aeruginosa; assay: Antimicrobial activity against Pseudomonas aeruginosa 1771M isolate after 18 hrs; format: functional
[7] = tested on: Enterobacter cloacae; assay: Antimicrobial activity against Enterobacter cloacae 1321E after 18 hrs; format: functional
[8] = tested on: Escherichia coli; assay: Antimicrobial activity against Escherichia coli TEM isolate after 18 hrs; format: functional
[9] = tested on: Klebsiella oxytoca; assay: Antimicrobial activity against Klebsiella oxytoca 1082E after 18 hrs; format: functional
[10] = tested on: Streptococcus pyogenes; assay: Antimicrobial activity against Streptococcus pyogenes 308A isolate after 18 hrs; format: functional
[11] = tested on: Escherichia coli; assay: Antimicrobial activity against Escherichia coli DC0 isolate after 18 hrs; format: functional
[12] = tested on: SK-MEL-2; assay: Cytotoxicity against human SK-MEL-2 cells; format: functional; conditions: read-out: ED50 (the source's name)
[13] = tested on: Streptococcus pyogenes; assay: Antimicrobial activity against Streptococcus pyogenes 77A isolate after 18 hrs; format: functional
[14] = tested on: Staphylococcus aureus; assay: Antimicrobial activity against Staphylococcus aureus 285 isolate after 18 hrs; format: functional
[15] = tested on: Escherichia coli; assay: Antimicrobial activity against Escherichia coli 078 isolate after 18 hrs; format: functional
[16] = tested on: SK-OV-3; assay: Cytotoxicity against human SKOV3 cells; format: functional; conditions: read-out: ED50 (the source's name)
[17] = tested on: Salmonella typhimurium; assay: Antimicrobial activity against Salmonella Typhimurium after 18 hrs; format: functional, Salmonella enterica subsp. enterica serovar Typhimurium; conditions: Salmonella enterica
[18] = tested on: Klebsiella aerogenes; assay: Antimicrobial activity against Klebsiella aerogenes 1522E after 18 hrs; format: functional
[19] = tested on: Staphylococcus aureus; assay: Antimicrobial activity against Staphylococcus aureus 503 isolate after 18 hrs; format: functional
[20] = tested on: XF498; assay: Cytotoxicity against human XF498 cells; format: functional; conditions: read-out: ED50 (the source's name)
[21] = tested on: Pseudomonas aeruginosa; assay: Antimicrobial activity against Pseudomonas aeruginosa 1771 isolate after 18 hrs; format: functional
[22] = tested on: Enterobacter cloacae; assay: Antimicrobial activity against Enterobacter cloacae P99 after 18 hrs; format: functional
[23] = tested on: A549; assay: Cytotoxicity against human A549 cells; format: functional; conditions: read-out: ED50 (the source's name)
[24] = tested on: HCT-15; assay: Cytotoxicity against human HCT15 cells; format: functional; conditions: read-out: ED50 (the source's name)
[25] = tested on: Enterococcus faecium; assay: Antimicrobial activity against Streptococcus faecium MD8b isolate after 18 hrs; format: functional

Row | MIC [1] [µg/mL] | MIC [2] [µg/mL] | MIC [3] [µg/mL] | MIC [4] [µg/mL] | MIC [5] [µg/mL] | MIC [6] [µg/mL] | MIC [7] [µg/mL] | MIC [8] [µg/mL] | MIC [9] [µg/mL] | MIC [10] [µg/mL] | MIC [11] [µg/mL] | MIC [13] [µg/mL] | MIC [14] [µg/mL] | MIC [15] [µg/mL] | MIC [17] [µg/mL] | MIC [18] [µg/mL] | MIC [19] [µg/mL] | Compound | EC50 [12] [µg/mL] | EC50 [16] [µg/mL] | EC50 [20] [µg/mL] | further results
1 | > 25 | > 25 | > 25 | > 25 | > 25 | 25 (≈ 55.2 µM) | > 25 | > 25 | > 25 | 12.5 (≈ 27.6 µM) | > 25 | > 25 | > 25 | > 25 | > 25 | > 25 | > 25 | CC(C)[C@@H](O)CC[C@@H](C)[C@H]1C[C@@H](O)[C@@H]2[C@]1(C)CC[C@@H]1[C@@]3(C)CC[C@H](O)C[C@@H]3[C@@H](O)C[C@]12O | 12.4 (≈ 27.4 µM) | 15.6 (≈ 34.5 µM) | 11.4 (≈ 25.2 µM) | MIC [21]: 25 µg/mL (≈ 55.2 µM); MIC [22]: > 25 µg/mL; EC50 [23]: 11.3 µg/mL (≈ 25 µM); EC50 [24]: 19.4 µg/mL (≈ 42.9 µM); MIC [25]: > 25 µg/mL
2 | > 25 | > 25 | > 25 | > 25 | > 25 | 25 (≈ 52 µM) | > 25 | > 25 | > 25 | 25 (≈ 52 µM) | > 25 | > 25 | > 25 | > 25 | > 25 | > 25 | > 25 | C=C(CC[C@@H](C)[C@H]1C[C@@H](O)[C@@H]2[C@]1(C)CC[C@@H]1[C@@]3(C)CC[C@H](O)[C@H](O)[C@@H]3[C@@H](O)C[C@]12O)[C@H](C)CO [CERTONARDOSTEROL A] | 4.1 (≈ 8.53 µM) | 7.3 (≈ 15.2 µM) | 4.4 (≈ 9.15 µM) | MIC [21]: 25 µg/mL (≈ 52 µM); MIC [22]: > 25 µg/mL; EC50 [23]: 3.1 µg/mL (≈ 6.45 µM); EC50 [24]: 4.5 µg/mL (≈ 9.36 µM); MIC [25]: > 25 µg/mL
3 | > 25 | > 25 | > 25 | > 25 | > 25 | 25 (≈ 53.8 µM) | > 25 | > 25 | > 25 | 25 (≈ 53.8 µM) | > 25 | > 25 | > 25 | > 25 | > 25 | > 25 | > 25 | C=C(CC[C@@H](C)[C@H]1C[C@@H](O)[C@H]2[C@@H]3C[C@H](O)[C@H]4[C@@H](O)[C@@H](O)CC[C@]4(C)[C@H]3CC[C@@]21C)[C@H](C)CO [CERTONARDOSTEROL B] | 4.9 (≈ 10.5 µM) | 6.9 (≈ 14.8 µM) | 4.7 (≈ 10.1 µM) | MIC [21]: 25 µg/mL (≈ 53.8 µM); MIC [22]: > 25 µg/mL; EC50 [23]: 3.6 µg/mL (≈ 7.75 µM); EC50 [24]: 6.4 µg/mL (≈ 13.8 µM); MIC [25]: > 25 µg/mL
4 | > 25 | > 25 | > 25 | > 25 | > 25 | 25 (≈ 53.8 µM) | > 25 | > 25 | > 25 | 25 (≈ 53.8 µM) | > 25 | > 25 | > 25 | > 25 | > 25 | > 25 | > 25 | C=C(CC[C@@H](C)[C@H]1C[C@@H](O)[C@@H]2[C@]1(C)CC[C@@H]1[C@@]3(C)CC[C@H](O)C[C@@H]3[C@@H](O)C[C@]12O)[C@H](C)CO [CERTONARDOSTEROL C] | 15.1 (≈ 32.5 µM) | 20.2 (≈ 43.5 µM) | 13.3 (≈ 28.6 µM) | MIC [21]: 25 µg/mL (≈ 53.8 µM); MIC [22]: > 25 µg/mL; EC50 [23]: 14.1 µg/mL (≈ 30.3 µM); EC50 [24]: 23.9 µg/mL (≈ 51.4 µM); MIC [25]: > 25 µg/mL
5 | > 25 | > 25 | > 25 | > 25 | > 25 | 25 (≈ 55.7 µM) | > 25 | > 25 | > 25 | 25 (≈ 55.7 µM) | > 25 | > 25 | > 25 | > 25 | > 25 | > 25 | > 25 | C=C(CC[C@@H](C)[C@H]1C[C@@H](O)[C@H]2[C@@H]3C[C@H](O)[C@H]4C[C@@H](O)CC[C@]4(C)[C@H]3CC[C@@]21C)[C@H](C)CO [CERTONARDOSTEROL D] | 5.5 (≈ 12.3 µM) | 8.5 (≈ 18.9 µM) | 4.8 (≈ 10.7 µM) | MIC [21]: 25 µg/mL (≈ 55.7 µM); MIC [22]: > 25 µg/mL; EC50 [23]: 5.3 µg/mL (≈ 11.8 µM); EC50 [24]: 9.6 µg/mL (≈ 21.4 µM); MIC [25]: > 25 µg/mL
6 | > 25 | > 25 | > 25 | > 25 | > 25 | > 25 | > 25 | > 25 | > 25 | 25 (≈ 55.7 µM) | > 25 | > 25 | > 25 | > 25 | > 25 | > 25 | > 25 | C=C(CC[C@@H](C)[C@H]1C[C@H](O)[C@H]2[C@@H]3C[C@@H](O)[C@H]4C[C@@H](O)CC[C@]4(C)[C@H]3CC[C@@]21C)[C@H](C)CO [CERTONARDOSTEROL E] | 4.1 (≈ 9.14 µM) | 4.9 (≈ 10.9 µM) | 4.1 (≈ 9.14 µM) | MIC [21]: > 25 µg/mL; MIC [22]: > 25 µg/mL; EC50 [23]: 3.9 µg/mL (≈ 8.69 µM); EC50 [24]: 4.2 µg/mL (≈ 9.36 µM); MIC [25]: > 25 µg/mL

Reference: ChEMBL document CHEMBL1150678, “Bioactive sterols from the starfish Certonardoa semiregularis” (2003)
